This is an account of results in patent US20170144972A1, “METHODS OF LOWERING PROPROTEIN CONVERTASE SUBTILISIN/KEXIN TYPE 9 (PCSK9)” (Catabasis Pharmaceuticals, Inc., priority 2012, published 2017).

Assay [1] concerns PCSK9. The experiment in a line: PCSK9 secretion assay in HepG2 cells (PCSK9 ELISA of supernatant). The assay is classed as cell-based. The settings on record: for lowering of PCSK9 (FIG. 1): 25 and 50 μM. On the procedure: HepG2 cells (from ATCC, Catalog no. HB-8065) were maintained in DMEM (Invitrogen) supplemented with 10% fetal bovine serum (Invitrogen). The day prior to the PCSK9 assay, cells are seeded in 96-well collagen coated plates at 25,000 cells/well.
The compounds of the invention were stored at −20° C. until used. The test article compound was dissolved in 100% ethanol to a 50 mM stock solution. This was then diluted in FBS to a final concentration of 1 mM. This solution was placed in a sonicating water bath for 30 minutes. Subsequent dilutions were then made in FBS supplemented with an equivalent volume of ethanol and mixed by vortexing.
HepG2 cells were seeded onto a collagen coated 96-well plate (Becton Dickinson, Catalog no. 35-4407) the day prior to the assay, as described above. The next day, the cell medium was removed, washed once with […] serum free DMEM to remove any residual PCSK9, and replaced with […] of serum free DMEM. Ten microliters of each compound concentration prepared in FBS was then added. Each concentration of compound was tested in triplicate. The compound was incubated with the cells overnight for 16 hours. Following this incubation, 10 µL of AlamarBlue was added to each well and cells incubated for another 2 hours. The plates were then removed and AlamarBlue fluorescence was measured (excitation, 550 nm and […]) to assess cell viability. Cell culture supernatant was then diluted […] 1×RDSP Calibrator Diluent and PCSK9 ELISA was then performed with […] of this diluted sample, as per the manufacturer's instructions. The ELISA was measured on a Victor X5 multilabel plate reader (PerkinElmer) at an absorbance of 450 nm with background correction measured at 550 nm (The PCSK9 Elisa kits can be purchased from R&D System, Catalog no. DPC900).
Alternatively, an IC50 could also be obtained when this type of assay was carried out using at least 6 different concentrations of the test compounds. Table 1 lists the IC50 values for the compounds tested in this assay.
(In general: ELISA stands for enzyme-linked immunosorbent assay.)

For assay [2], the system named is Zucker fa/fa Rat model of Dyslipidemia. Put plainly: Plasma triglyceride level of the Zucker fa/fa rat model of dyslipidemia. The assay is classed as in vivo. The note with it: male Zucker rats, po qd, 10, 30, 100 and 300 mg/kg, blood sample day 4. On the procedure:
Male Zucker rats (HsdHlr: Zucker-Lepr̂fa) between 8-10 weeks of age were purchased from Harlan and maintained on Purina Rodent Diet (5001) for the duration of the study. Animals were randomized and assigned to treatment arms based on body weight and plasma triglyceride (TG) levels (n=8). Inclusion criteria for the study include body weight >300 grams and fed TG levels in plasma >800 mg/dL. Dosing will be initiated on day 1 and continue through day 5. Dosing will be daily (qd) by oral gavage (po) for all treatment arms (Compound I-8 was administered orally at 4 different doses, 10, 30, 100 and 300 mg/kg; in addition, a combination of niacin/EPA in a ratio of 100/200 mg/kg was also employed). Body weights will be measured for all rats on days 1 through 5. On day 4, a blood sample (fed) will be collected from each rat, processed for plasma and stored at −80° C. Plasma triglyceride level was determined from commercial kits using standard protocols. […] Because compound I-8 was able to lower fed plasma triglyceride, it is useful to treat dyslipidemia as well as other diseases such as type I hyperlipoproteinemia and type 5 hyperlipoproteinemia.

Assay [3] concerns APOE*3Leiden mice. The experiment in a line: Plasma cholesterol and triglycerides in ApoE3Leiden mice on Western type diet, 2 and 4 weeks of treatment. The note with it: female APOE*3Leiden mice, WTD, I-8 0.75% w/w in diet, atorvastatin 0.0015% w/w in diet. It counts as in vivo. On the procedure:
The study was conducted using female APOE*3Leiden mice (groups of each n=10) and one untreated reference control group on chow (n=5). To induce dyslipidemia, a high cholesterol Western type diet containing 1% cholesterol, 15% cacao butter, 40.5% sucrose and 1% corn oil (WTD) was fed to the mice for a total experimental period of 20 weeks (of which 4 weeks are a run-in period).
The dyslipidemic mice were grouped on the basis of plasma cholesterol at t=0 assayed in 4 h fasting blood. Mice with low cholesterol after the run-in period were excluded so that homogenous experimental groups were obtained. A group of reference mice (n=5) remained on a chow diet during the complete study period (normolipidemic reference mice).
This mix was then added to the master mix (containing the rest of the ingredients) and mixed thoroughly. The diet was frozen to −20° C. On the subsequent day, the diet was broken into small pellets (approx 5 g per piece) and freeze dried, and stored in vacuum sealed bags (approx 500 g) at −20° C. until use. The diets were refreshed daily and unused diet was discarded.
1) Body weight at −4, 0, 2, 4 weeks 2) Food intake (g/day/mouse) at 0, 2, 4 weeks (per cage) 3) Plasma total cholesterol at −4, 0, 2, 4 weeks (individually) 4) Plasma triglycerides at −4, 0, 2, 4 weeks (individually) 5) Lipoprotein profiles at 0 (pool of all animals) and 4 weeks (cholesterol distribution over VLDL, LDL and HDL-sized particles, analysis on group level).
EDTA plasma was collected in weeks −4, 0, 2 and 4 weeks.

For assay [4], the system named is ApoE*3 Leiden mice. The experiment in a line: Liver weight, plasma cholesterol and triglycerides of ApoE*3 Leiden mice, 16 weeks of treatment. The assay is classed as in vivo. The note with it: I-8 in WTD at 7.5 g/kg. On the procedure:
The same experimental design used in example 6 was used. Two treatment groups were used (n=15). The control animals were kept on a Western type diet (WTD) consisting of 1% cholesterol, 15% cacao butter, 40.5% sucrose, and 1% corn oil. For the treatment group, compound I-8 was administered in the above WTD at a ratio of 7.5 g/kg. Animals were maintained on the WTD or treatment group for 16 weeks. At the conclusion of the study, plasma cholesterol and triglyceride levels were recorded, as well as the weight of the liver. There was a significant decrease in plasma cholesterol, triglyceride levels as well as liver weight in the treatment group. After 16 weeks of treatment, the cholesterol level of the treatment group was 420 mg/dL, compared with a level of 750 mg/dL for the control group; the triglyceride level was 110 mg/dL, compared with a level of 160 mg/dL for the control group.

For the compound `CC/C=C\C/C=C\C/C=C\C/C=C\C/C=C\CCCC(=O)NCCNC(C)=O` [Compound A, (5Z,8Z,11Z,14Z,17Z)—N-(2-acetamidoethyl)icosa-5,8,11,14,17-pentaenamide, reference compound], the “activity toward PCSK9 (FIG. 1)” value in assay [1] (HepG2 cells, highest tested concentration of 50 μM) is on record as “essentially no activity”.

In the case of `CC/C=C\C/C=C\C/C=C\C/C=C\C/C=C\CCCC(=O)NCCNC(=O)c1cccnc1` [Compound I-8, N-(2-(5Z,8Z,11Z,14Z,17Z)-eicosa-5,8,11,14,17-pentaenamidoethyl)nicotinamide], in assay [2], the “fed plasma triglyceride level (FIG. 3)” value is given as “dose dependent decrease”. Moreover, in assay [1] (HepG2 cells incubated with 10 μM of atorvastatin along with test article), the “PCSK9 levels in HepG2 cells incubated with atorvastatin (FIG. 2)” value is on record as “decrease PCSK9 levels in a dose response manner to well below the atorvastatin level induced levels”. Further, the “lowering of PCSK9 (FIG. 1)” value in assay [1] (HepG2 cells) is given as “significant lowering of PCSK9”. Also, in assay [3] (2 weeks), the “plasma cholesterol at t=2 weeks (FIG. 4)” value was “statistically significant reduction”. Moreover, in assay [3] (4 weeks), the “plasma cholesterol after 4 weeks of treatment (FIG. 5)” value is reported as “Comparable level of cholesterol reduction” and the “plasma triglyceride levels after 4 weeks of treatment (FIG. 6)” value is recorded as “significant reduction”. Besides, in assay [4], the “liver weight (FIG. 7)” value is “statistically significant drop”.

As for `CC/C=C\C/C=C\C/C=C\C/C=C\C/C=C\CCCC(=O)NCCNC(=O)c1ccccc1` [II-1, N-(2-((5Z,8Z,11Z,14Z,17Z)-icosa-5,8,11,14,17-pentaenamido)ethyl)benzamide], in assay [1] (HepG2 cells), the “lowering of PCSK9 (FIG. 1)” value is listed as “significant lowering of PCSK9”.

In the case of `CC(C)c1c(C(=O)Nc2ccccc2)c(-c2ccccc2)c(-c2ccc(F)cc2)n1CC[C@@H](O)C[C@@H](O)CC(=O)O` [atorvastatin, reference compound], in assay [1] (HepG2 cells, 10 μM atorvastatin alone), the “PCSK9 secretion (FIG. 2)” value is recorded as “increases PCSK9 secretion”.
